“And” between values parts separate entries of the source, which are not always exact repeats. Equal entries are not always repeated.
How the values were obtained:
Assay type in all cases: functional, Homo sapiens
U2OS [1] = test: (§1) Here: values are normalized to the negative (DMSO; defined as 0% autophagy induction) and positive (250nM Torin1; mTOR inhibitor; defined as maximal inducer of autophagy = 100%) control compounds and represented as % of autophagy induction. […] The impact of autophagy induction on cells is complex and depends on the affected target. As such, the magnitude of a phenotype may not be equally mirrored in the %-value of autophagy induction and vice versa. The dynamics of the induction may indicate the mode of activation: e.g. activation via phosphorylation or a signaling cascade may occur fast, while activation via transcription factors may take considerably longer. […] Of note, treatment concentrations may be sub-optimal for specific compounds, leading to false negative annotations.; conditions: Culturing Media DMEM, 1 % Penicillin/Streptomycin, 10% Fetal bovin serum Add-On: No, Screening Media Control DMEM, Screening Media Samples DMEM
TERT-RPE1 = test: as §1; conditions: Culturing Media DMEM/F12 (1:1), 1 % Penicillin/Streptomycin, 10% Fetal bovin serum Add-On: No, Screening Media Control DMEM/F12 (1:1), Screening Media Samples DMEM/F12 (1:1)
U2OS [2] = test: as §1; conditions: Culturing Media DMEM, 1 % Penicillin/Streptomycin, 10% Fetal bovin serum Add-On: No, Screening Media Control DMEM, Screening Media Samples DMEM; remark: listed apart in the source
[3] = Compound Concentration 0.5 uM, Timepoint 12 hours
[4] = Compound Concentration 0.5 uM, Timepoint 24 hours
[5] = Compound Concentration 0.5 uM, Timepoint 36 hours
[6] = Compound Concentration 0.5 uM, Timepoint 60 hours
[7] = Compound Concentration 2 uM, Timepoint 12 hours
[8] = Compound Concentration 2 uM, Timepoint 24 hours
[9] = Compound Concentration 2 uM, Timepoint 36 hours
[10] = Compound Concentration 2 uM, Timepoint 60 hours
[11] = Compound Concentration 10 uM, Timepoint 12 hours
[12] = Compound Concentration 10 uM, Timepoint 24 hours
[13] = Compound Concentration 10 uM, Timepoint 36 hours
[14] = Compound Concentration 10 uM, Timepoint 60 hours
[15] = Compound Concentration 0.5 uM, Timepoint 12 hours, 12 h, 0.5 µM
[16] = Compound Concentration 0.5 uM, Timepoint 24 hours, 24 h, 0.5 µM
[17] = Compound Concentration 0.5 uM, Timepoint 36 hours, 36 h, 0.5 µM
[18] = Compound Concentration 0.5 uM, Timepoint 60 hours, 60 h, 0.5 µM
[19] = Compound Concentration 2 uM, Timepoint 24 hours, 24 h, 2 µM
[20] = Compound Concentration 2 uM, Timepoint 36 hours, 36 h, 2 µM
[21] = Compound Concentration 2 uM, Timepoint 60 hours, 60 h, 2 µM
[22] = Compound Concentration 10 uM, Timepoint 12 hours, 12 h, 10 µM
[23] = Compound Concentration 2 uM, Timepoint 12 hours, 12 h, 2 µM
[24] = Compound Concentration 10 uM, Timepoint 24 hours, 24 h, 10 µM
[25] = Compound Concentration 10 uM, Timepoint 36 hours, 36 h, 10 µM
[26] = Compound Concentration 10 uM, Timepoint 60 hours, 60 h, 10 µM

Row | SMILES | autophagy induction (U2OS [1]; [3]) | autophagy induction (U2OS [1]; [4]) | autophagy induction (U2OS [1]; [5]) | autophagy induction (U2OS [1]; [6]) | autophagy induction (U2OS [1]; [7]) | autophagy induction (U2OS [1]; [8]) | autophagy induction (U2OS [1]; [9]) | autophagy induction (U2OS [1]; [10]) | autophagy induction (U2OS [1]; [11]) | autophagy induction (U2OS [1]; [12]) | autophagy induction (U2OS [1]; [13]) | autophagy induction (U2OS [1]; [14]) | autophagy induction (TERT-RPE1; [15]) | autophagy induction (TERT-RPE1; [16]) | autophagy induction (TERT-RPE1; [17]) | autophagy induction (TERT-RPE1; [18]) | autophagy induction (TERT-RPE1; [19]) | autophagy induction (TERT-RPE1; [20]) | autophagy induction (TERT-RPE1; [21]) | autophagy induction (TERT-RPE1; [22]) | also measured
1 | CCCNS(=O)(=O)Nc1ncnc(OCCOc2ncc(Br)cn2)c1-c1ccc(Br)cc1 | 2.901% | -2.846% | 0.07503% | -9.912% | 12.0444% | 9.078% | 7.396% | -1.934% | 26.4347% | 18.1089% | 17.8738% | 1.732% | -0.7197% and -7.3982% | 0.659% and -8.96% | -3.018% and -8.201% | -5.286% and -10.1731% | -0.7464% and 17.5664% | -1.802% and 12.9792% | -3.01% and 8.651% | -3.714% and 17.3261% | autophagy induction (U2OS [2]; [3]): -3.964%; autophagy induction (U2OS [2]; [4]): -4.032%; autophagy induction (U2OS [2]; [5]): -61.3535%; autophagy induction (U2OS [2]; [6]): -1.132%; autophagy induction (U2OS [2]; [7]): -0.4685%; autophagy induction (U2OS [2]; [8]): -1.227%; autophagy induction (U2OS [2]; [9]): -59.7666%; autophagy induction (U2OS [2]; [10]): -0.5161%; autophagy induction (U2OS [2]; [11]): 11.7925%; autophagy induction (U2OS [2]; [12]): 5.282%; autophagy induction (U2OS [2]; [13]): -57.2377%; autophagy induction (U2OS [2]; [14]): -0.5877%
2 | FC(F)(F)c1cccc(-c2noc(-c3cc(-c4ccccc4)c(C(F)(F)F)s3)n2)c1 | 9.021% | 3.382% | -0.06707% | -12.3398% | 0.8817% | -10.2337% | -8.601% | -22.9781% | -28.6388% | -12.6195% | -3.849% | -3.37% | 1.977% and -3.815% | 1.344% and -4.458% | 0.88% and -7.47% | -0.5412% and -7.068% | 4.894% and -1.63% | 2.202% and -4.099% | 3.847% and -8.453% | -16.4913% and 2.616% | autophagy induction (TERT-RPE1; [23]): 8.025% and -0.7273%; autophagy induction (TERT-RPE1; [24]): -1.867% and 1.296%; autophagy induction (TERT-RPE1; [25]): 1.745% and 2.594%; autophagy induction (U2OS [2]; [3]): -1.1495%; autophagy induction (U2OS [2]; [4]): -3.455%; autophagy induction (U2OS [2]; [5]): -61.0771%; autophagy induction (U2OS [2]; [6]): -1.369%; autophagy induction (U2OS [2]; [7]): -1.566%; autophagy induction (U2OS [2]; [8]): -3.4743%; autophagy induction (U2OS [2]; [9]): -60.4788%; autophagy induction (U2OS [2]; [10]): -1.735%; autophagy induction (U2OS [2]; [11]): -17.6781%; autophagy induction (U2OS [2]; [12]): -7.308%; autophagy induction (U2OS [2]; [13]): -61.2616%; autophagy induction (U2OS [2]; [14]): -2.196%
3 | O=C(O)CC1CCC2(CC1)CCN(c1cc(OC(F)(F)F)ccc1Cl)CC2 | -7.253% | -0.0788% | -0.8569% | -4.709% | -6.392% | -5.775% | -5.315% | -3.59% | -7.404% | -7.084% | -0.9405% | -11.9422% | 1.5088% and -4.208% | -1.371% and -2.379% | -4.319% and -4.033% | -5.803% and -6.663% | 2.312% and -6.096% | -2.505% and -8.733% | -5.7463% and -9.633% | 5.943% and -1.866% | autophagy induction (TERT-RPE1; [23]): 7.834% and -3.775%; autophagy induction (TERT-RPE1; [24]): 5.6585% and -2.656%; autophagy induction (TERT-RPE1; [25]): 3.294% and -3.964%; autophagy induction (TERT-RPE1; [26]): -1.174% and -1.531%; autophagy induction (U2OS [2]; [3]): 6.893%; autophagy induction (U2OS [2]; [4]): 1.231%; autophagy induction (U2OS [2]; [5]): -59.5433%; autophagy induction (U2OS [2]; [6]): -1.659%; autophagy induction (U2OS [2]; [7]): 4.528%; autophagy induction (U2OS [2]; [8]): 2.023%; autophagy induction (U2OS [2]; [9]): -58.8057%; autophagy induction (U2OS [2]; [10]): 0.09301%; autophagy induction (U2OS [2]; [11]): 1.476%; autophagy induction (U2OS [2]; [12]): -1.647%; autophagy induction (U2OS [2]; [13]): -59.8779%; autophagy induction (U2OS [2]; [14]): -1.029%
4 | COc1ccc(NS(=O)(=O)c2sc3ccc(Cl)cc3c2C)cc1N1CCNCC1.Cl | -11.3104% | -5.358% | -7.917% | -7.314% | 6.008% | 2.399% | -3.71% | -14.5759% | 10.7956% | 3.064% | -4.691% | -6.499% | -2.268% and 1.364% | -0.6721% and -2.131% | -2.429% and -0.9432% | -2.224% and -1.994% | 2.1639% and -0.4459% | 0.7328% and -1.399% | 3.483% and -0.5872% | 10.6024% and -4.741% | autophagy induction (TERT-RPE1; [23]): 1.355% and 0.7844%; autophagy induction (TERT-RPE1; [24]): 10.2969% and -5.794%; autophagy induction (TERT-RPE1; [25]): 13.8741% and -5.163%; autophagy induction (TERT-RPE1; [26]): 16.669% and -5.902%; autophagy induction (U2OS [2]; [3]): 2.987%; autophagy induction (U2OS [2]; [4]): -0.6318%; autophagy induction (U2OS [2]; [5]): -59.945%; autophagy induction (U2OS [2]; [6]): -1.761%; autophagy induction (U2OS [2]; [7]): 6.036%; autophagy induction (U2OS [2]; [8]): -0.4148%; autophagy induction (U2OS [2]; [9]): -59.1656%; autophagy induction (U2OS [2]; [10]): -2.731%; autophagy induction (U2OS [2]; [11]): 1.788%; autophagy induction (U2OS [2]; [12]): 0.7642%; autophagy induction (U2OS [2]; [13]): -61.0668%; autophagy induction (U2OS [2]; [14]): -6.058%
